Measurements published in PMC10818329, “An Ultra-Performance Liquid Chromatography–Tandem Mass Spectrometry (UPLC–MS/MS) Method for Qualifying DAPB in Rat Plasma and Application to Pharmacokinetic Studies” (Molecules, 2024).

How the values were obtained:
SHR rats = system: SHR rats; design: method as in PMID 37446639; details: cited from earlier work
[1] = Stability of DAPB in rat plasma (NaF added); format: in vitro ADME; details: for Stability RE (%): n = 6
Experimental: Esterase widely exists in the blood, serum, and plasma of organisms. Therefore, DAPB may be unstable and easily hydrolyzed by plasma esterases owning to the ester group. In the method-development process, the stability of DAPB in whole blood and plasma was tested in detail. Low temperature is an important factor for maintaining the stability of the analyte; therefore, in our study, an ice-water bath was used to provide cooling conditions. Sodium fluoride (NaF), a typical esterase inhibitor, was pre-added in the collected blood samples to prevent the hydrolysis of DAPB. In the plasma with NaF added, DAPB was stable after being placed at room temperature for 4 h, −80 °C for 30 days, and then subject to three freeze/thaw cycles. In addition, the post-preparative plasma sample stored in an autosampler for 24 h remained stable.
The stability of DAPB in rat plasma was assessed by using QC samples at three concentrations in six replicates following three freeze/thaw cycles, short-term storage (room temperature for […]), long-term storage (−80 °C for 30 consecutive days), and autosampler rack storage (4 °C for 24 h). In freeze/thaw cycle tests, the QC samples were frozen and stored at −80 °C and then thawed at room temperature; this was repeated three times. The values of stability were calculated by comparing the concentrations of the QC samples following each storage period with the concentrations of the freshly prepared QC samples in the same analytical run.

[2] = Pharmacokinetic study of DAPB in rats (plasma, UPLC–MS/MS); format: in vivo, Sprague–Dawley (SD) rats
Experimental: Sprague–Dawley (SD) rats (180–200 g) were purchased from the Experimental Animal Center of Xi’an Jiaotong University (permit number SCXK 2017–003) and housed under controlled conditions (25 °C, 50 ± 5% humidity, and 12 h dark–light cycles). The animal protocol was approved by the Animal Ethics Committee of Xi’an Medical College. […] For the intravenous administration group, DAPB prepared in saline containing 5% DMSO was injected in the tail vein at a dose of 6 mg/kg. For the oral administration group, rats were given DAPB dissolved in 10% (2-hydroxypropyl)-β-cyclodextrin in water (10% HP-β-CD solution) containing 20% PEG200 and 20% propylene glycol at a dose of 30 mg/kg orally. Blood samples were collected in heparinized tubes pretreated with NaF via the ophthalmic venous plexus before and at 0.083, 0.17, 0.25, 0.50, 1.00, 2.00, 4.00, and 8.00 h after dosing. After centrifugation, the supernatant plasma was obtained and stored at −80 °C for further treatment. For the preparation of the plasma samples, 10 μL of the IS working solution (1 μg/mL), 1 μL of NaF (5 mg/mL), and 290 μL of acetonitrile were added to 100 μL of the plasma samples. Subsequently, the mixed plasma samples were centrifuged twice at 16,000× g for 5 min at 4 °C after vortexing for 30 s. For analysis, 10 μL of the supernatant was injected into the UPLC–MS/MS apparatus.

[3] = Sprague-Dawley, rat plasma, intravenous administration at 6 mg/kg, mean ± SD (n = 6)
[4] = Sprague-Dawley, rat plasma, oral administration at 30 mg/kg, mean ± SD (n = 6)
[5] = rat plasma, oral administration at 30 mg/kg, mean ± SD (n = 6)

Compound: C[C@@H](NC(=O)C(O)Cc1ccc(O)c(O)c1)C(=O)N1CCC[C@H]1C(=O)OC1CC2CCC1(C)C2(C)C (stereo partly drawn) [DAPB, (2R)-3-(3,4-dihydroxyphenyl)-2-hydroxypropionyl-L-alanyl-L-proline bornyl ester]
- Decrease of diastolic blood pressure (DBP) (SHR rats): 35 mmHg
- Decrease of systolic blood pressure (SBP) (SHR rats): 50 mmHg
- Stability RE (%) ([1]; post-preparative rat plasma sample, autosampler rack (4 °C) for 24 h, spiked conc. 5 ng/mL): −11.6%
- Stability RE (%) ([1]; post-preparative rat plasma sample, autosampler rack (4 °C) for 24 h, spiked conc. 500 ng/mL): −7.4%
- Stability RE (%) ([1]; post-preparative rat plasma sample, autosampler rack (4 °C) for 24 h, spiked conc. 1000 ng/mL): −3.4%
- Stability RE (%) ([1]; rat plasma, room temperature for 2 h, spiked conc. 5 ng/mL): −10.2%
- Stability RE (%) ([1]; rat plasma, room temperature for 2 h, spiked conc. 500 ng/mL): −7.5%
- Stability RE (%) ([1]; rat plasma, room temperature for 2 h, spiked conc. 1000 ng/mL): 1.2%
- Stability RE (%) ([1]; rat plasma, three freeze/thaw cycles, spiked conc. 5 ng/mL): −6.4%
- Stability RE (%) ([1]; rat plasma, three freeze/thaw cycles, spiked conc. 500 ng/mL): 2.6%
- Stability RE (%) ([1]; rat plasma, three freeze/thaw cycles, spiked conc. 1000 ng/mL): −2.0%
- Stability RE (%) ([1]; rat plasma, −80 °C for 30 days, spiked conc. 5 ng/mL): 5.3%
- Stability RE (%) ([1]; rat plasma, −80 °C for 30 days, spiked conc. 500 ng/mL): −6.2%
- Stability RE (%) ([1]; rat plasma, −80 °C for 30 days, spiked conc. 1000 ng/mL): −4.6%
- Stability in plasma with NaF added (in words) ([1]; room temperature for 4 h, −80 °C for 30 days, three freeze/thaw cycles): stable
- bioavailability ([2]; Sprague-Dawley, plasma, rat, oral 30 mg/kg vs intravenous 6 mg/kg): 78.2%
- AUC(0-inf) [2, 3]: 13.8 ± 2.1 ng·h/mL
- AUC(0-t) [2, 3]: 11.8 ± 1.66 ng·h/mL
- half-life [2, 3]: 11.4 ± 0.6 min
- Vd ([2]; Sprague-Dawley, rat plasma, intravenous administration at 6 mg/kg, mean ± SD (n = 6), read-out: Vss): 910 ± 24.4 L/kg
- AUC(0-inf) [2, 4]: 53.9 ± 8.34 ng·h/mL
- AUC(0-t) [2, 4]: 49.6 ± 7.92 ng·h/mL
- Cmax [2, 4]: 33.2 ± 10.9 ng/mL
- Tmax [2, 4]: 14.7 min
- half-life [2, 4]: 97.8 ± 21.6 min
- CL [2, 5]: 89,992.36 ± 10,292.61 mL/h/kg
- Vss [2, 5]: 264.73 ± 65.86 L/kg
